Experimental data: patent US11046720B2, “Dimethylphosphine oxide compound” (GUIZHOU INOCHINI TECHNOLOGY CO., LTD, priority 2018, dated 2021)
Where two headings read alike, the source gives them in different places.

Assays:
[1] = molecular target: T1, LRRK2 full-length human recombinant protein (Homo sapiens, UniProt Q5S007); assay: In vitro evaluation of LRRK2 kinase inhibitory activity (HTRF / TR-FRET, LRRKtide); format: biochemical; details: 57 μM ATP, 0.4 uM Fluorescein-ERM (LRRKtide) peptide
T1 construct: express LRRK2 full-length human recombinant protein in Sf9 cells of insects; GST; made in house; host or cells: Sf9 insect cells (baculovirus)
T1 sequence (Q5S007 whole entry): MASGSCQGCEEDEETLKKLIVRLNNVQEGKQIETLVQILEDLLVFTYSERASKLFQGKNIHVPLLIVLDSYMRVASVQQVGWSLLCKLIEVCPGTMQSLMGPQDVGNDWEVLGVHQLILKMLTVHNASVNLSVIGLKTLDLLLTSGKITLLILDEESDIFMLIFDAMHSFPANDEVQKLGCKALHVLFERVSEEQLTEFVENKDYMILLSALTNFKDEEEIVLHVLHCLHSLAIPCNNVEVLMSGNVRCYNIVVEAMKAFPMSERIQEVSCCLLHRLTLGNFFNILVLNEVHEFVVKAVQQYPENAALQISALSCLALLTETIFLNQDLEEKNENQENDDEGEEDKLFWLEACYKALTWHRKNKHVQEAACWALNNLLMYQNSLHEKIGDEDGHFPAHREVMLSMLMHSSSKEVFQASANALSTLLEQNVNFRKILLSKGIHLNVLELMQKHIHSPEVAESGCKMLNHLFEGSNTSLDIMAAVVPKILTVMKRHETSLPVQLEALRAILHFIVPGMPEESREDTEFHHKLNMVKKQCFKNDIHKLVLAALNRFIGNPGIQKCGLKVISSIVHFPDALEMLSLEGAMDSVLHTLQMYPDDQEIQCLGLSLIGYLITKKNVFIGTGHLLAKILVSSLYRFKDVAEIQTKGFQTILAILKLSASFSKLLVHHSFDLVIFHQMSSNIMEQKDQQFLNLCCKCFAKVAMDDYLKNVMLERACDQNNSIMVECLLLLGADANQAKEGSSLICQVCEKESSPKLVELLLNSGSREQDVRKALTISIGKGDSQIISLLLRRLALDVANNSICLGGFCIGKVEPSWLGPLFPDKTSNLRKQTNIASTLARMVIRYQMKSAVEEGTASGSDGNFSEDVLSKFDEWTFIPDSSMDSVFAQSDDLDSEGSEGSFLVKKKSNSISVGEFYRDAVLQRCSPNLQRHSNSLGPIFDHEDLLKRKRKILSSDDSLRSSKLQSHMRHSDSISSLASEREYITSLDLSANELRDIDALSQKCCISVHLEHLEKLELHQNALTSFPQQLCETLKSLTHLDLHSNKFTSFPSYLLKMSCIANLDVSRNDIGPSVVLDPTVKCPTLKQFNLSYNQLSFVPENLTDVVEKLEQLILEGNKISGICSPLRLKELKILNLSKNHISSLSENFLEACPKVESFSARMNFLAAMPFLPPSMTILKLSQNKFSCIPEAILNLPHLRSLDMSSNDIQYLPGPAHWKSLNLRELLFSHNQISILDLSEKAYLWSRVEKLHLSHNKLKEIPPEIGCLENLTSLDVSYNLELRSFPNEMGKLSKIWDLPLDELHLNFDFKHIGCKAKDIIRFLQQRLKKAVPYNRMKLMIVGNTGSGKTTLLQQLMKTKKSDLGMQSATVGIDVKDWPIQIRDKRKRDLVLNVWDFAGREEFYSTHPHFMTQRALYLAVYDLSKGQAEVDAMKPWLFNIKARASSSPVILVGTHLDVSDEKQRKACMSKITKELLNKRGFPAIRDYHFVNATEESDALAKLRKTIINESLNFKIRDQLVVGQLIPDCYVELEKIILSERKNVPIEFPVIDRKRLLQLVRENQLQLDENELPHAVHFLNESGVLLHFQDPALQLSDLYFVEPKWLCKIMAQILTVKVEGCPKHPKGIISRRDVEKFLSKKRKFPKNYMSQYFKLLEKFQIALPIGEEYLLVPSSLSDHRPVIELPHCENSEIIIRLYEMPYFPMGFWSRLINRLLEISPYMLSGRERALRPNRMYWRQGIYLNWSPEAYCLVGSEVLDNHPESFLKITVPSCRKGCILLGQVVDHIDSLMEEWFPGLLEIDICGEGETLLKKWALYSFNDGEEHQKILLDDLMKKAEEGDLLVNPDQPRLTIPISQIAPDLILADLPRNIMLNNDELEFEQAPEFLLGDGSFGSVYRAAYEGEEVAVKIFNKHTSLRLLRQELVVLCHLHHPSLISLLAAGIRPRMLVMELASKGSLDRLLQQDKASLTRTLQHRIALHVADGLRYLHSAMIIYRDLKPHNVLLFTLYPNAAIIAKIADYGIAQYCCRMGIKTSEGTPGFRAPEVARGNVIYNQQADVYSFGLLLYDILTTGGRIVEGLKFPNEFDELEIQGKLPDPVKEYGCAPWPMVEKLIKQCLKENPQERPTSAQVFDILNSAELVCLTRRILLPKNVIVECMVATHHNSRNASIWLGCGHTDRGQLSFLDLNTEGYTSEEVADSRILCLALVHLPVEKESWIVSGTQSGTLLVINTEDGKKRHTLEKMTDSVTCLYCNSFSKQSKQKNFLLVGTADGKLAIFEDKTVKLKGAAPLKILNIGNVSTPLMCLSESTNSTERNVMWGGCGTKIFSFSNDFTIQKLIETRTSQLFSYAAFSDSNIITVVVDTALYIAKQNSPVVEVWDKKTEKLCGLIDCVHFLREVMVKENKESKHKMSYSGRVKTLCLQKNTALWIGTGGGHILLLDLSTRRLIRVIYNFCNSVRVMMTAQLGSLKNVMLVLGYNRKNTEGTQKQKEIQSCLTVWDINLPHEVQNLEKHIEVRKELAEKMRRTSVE
Experimental: Experimental purpose: to detect transfer of energy signals (ratio of fluorescence signals: […]) after the phosphate group of phosphorylated Fluorescein-ERM (LRRKtide) peptide binds with LanthaScreen® Tb-pERM (pLRRKtide) antibody using homogeneous time-resolved fluorescence. Calculate IC50 for LRRK2 inhibition of the compound to be assayed.
1. Reaction solution: 10 mM 4-(2-hydroxyethyl) piperazine-1-ethanesulfonic acid (pH 7.5); 2 mM magnesium chloride; 0.5 mM glycol-bis-(2-aminoethylether)-N; 0.002% primary alcohol ethoxylate, 1 mM dithiothreitol and 1% DMSO;
2. Assay solution: TR-FRET Dilution Buffer;
3. LRRK2 human recombinant protein: use GST tag and baculovirus to express LRRK2 full-length human recombinant protein in Sf9 cells of insects;
4. Substrate: 0.4 uM Fluorescein-ERM (LRRKtide) peptide; 57 uM ATR
Resonance energy transfer of Fluorescein-ERM (LRRKtide) peptide and LanthaScreen® Tb-pERM (pLRRKtide) antibody between […].
1. Add DMSO solution of the compound to be assayed through the Echo550 non-contact nano-liter acoustic droplet ejection system;
2. Prepare mixed solution of enzyme and polypeptide with freshly prepared reaction solution. Add the mixed solution to the reaction cavity and warm it up at room temperature for 20 minutes in advance;
3. Add 57 μM ATP to initiate reaction, which lasts for 90 minutes at room temperature;
4. Add fluorescein-ERM (LRRKtide) peptide, LanthaScreen® Tb-pERM (pLRRKtide) antibody and 10 mM ethylene diamine tetraacetic acid to the assay system. The reaction lasts for 60 minutes at room temperature. Detect yellow light signals with Em/Ex 520/485.
5. Measure enzyme activity inhibition relative to DMSO blank control group according to the signal ratio, and calculate IC50 by fitting curves with the software XLfit5.

LRRK2 (pSer935) = molecular target: T2, LRRK2 (pSer935) (Homo sapiens, UniProt Q5S007); assay: In vitro evaluation of inhibitory activity for LRRK2 cell (pSer935), 293T cells transfected with pcmv-flag-lrrk2, MSD; format: cell-based
T2 construct: expressed in transfected cells; host or cells: 293T cells
T2 sequence (Q5S007 whole entry): as above
Experimental: Take 293T cells out of liquid nitrogen and put them in water at 37° C. After ice has fully thawed, transfer the cells to 5 mL warm culture medium. Discard the supernatant through centrifugation, and culture the suspended cells in the culture medium as new cells.
Culture the 293T cells in the culture medium for two to three days.
Plant 1.4×10^6/293T cells on a culture plate. After two days of culturing, cells will multiply to 5×10^6, so planting cells on N+1 plates is enough for performing experiments on N 96-well plates.
1) Add 5 μl (0.5 μg/μl) pcmv-flag-Irrk2 to 145 μl DMEM culture medium, and mix them evenly with a straw;
6) Incubate the culture plate inside a humidified incubator with 5% carbon dioxide for 20 to 24 hours at 37° C.
3. (Day 3) Plant the 293T Cells on the 96-Well Plate;
3) Transfer 50 μl inhibitor containing culture medium to the cell culture plate;
4) Incubate the culture plate inside a humidified incubator with 5% carbon dioxide for 20 to 24 hours at 37° C.;
5) Extract 300 μl inhibitor containing culture medium with a dropper. Take 200 μl inhibitor containing culture medium and add 100 μl decomposer into the culture medium. After the plate has been sealed, it shall be shaken for 30 minutes at 4° C.
1) Add 2 μg/25 μl labeled antibody to the MSD plate to incubate for 2 hours; (50 μl 3.9 μg/μl Flag antibody+2.5 ml fetal bovine serum per plate). Maintain centrifugation for 10 s (1,000 rpm);
5) Transfer 12.5 μl lysis buffer and 12.5 μl cell lysis buffer to the MSD plate to incubate for 1 hour at room temperature;
7) Dilute ps935 antibody at 1:200, and add 25 μl antibody to incubate for 1 hour;
9) Dilute goat anti-rabbit antibody at 1:500, and add 25 μl antibody to the incubation plate to incubate for 1 hour;
13) After incubation for about 3 minutes, read data over 15 minutes.

[2] = Pharmacokinetic evaluation in C57BL/6 mice, brain tissues and plasma; format: in vivo; details: oral, 5 mg/kg; for Kp / AUC(0-t) / Tmax / Cmax / half-life: male, C57BL/6, mouse; for Kp: brain/plasma, read-out: drug concentration ratio between brain tissues and plasma (B/P)
Experimental: Experimental purpose: to study pharmacokinetics of the compounds in vivo in C57BL/6 mice—drug concentration ratio between brain tissues and plasma
Experimental materials: C57BL/6 mice (male, 8 weeks old, weight: 25 g-30 g)
Assay Pharmacokinetic Features of Glires after they are Orally Administered the Compounds According to Standard Schemes.
In the experiment, the candidate compounds are prepared into 1 mg/mL mixed suspension, and mice are orally administered once. The menstruum for oral administration is 10% dimethyl sulfoxide (DMSO)/10% polysorbate/20% PEG-400 aqueous solution. This project uses male C57BL/6 mice, which are orally administered drugs at a dose of 5 mg/kg. Collect the whole brain 0.5, 1, 2 and 4 hours after the administration. Homogenize tissue samples with 15 mM [[…] (pH=7.4) buffer and methanol (volume ratio: 2:1)] at a ratio of 1:5 (w:v). Equally divide the homogenate into 2 samples: one for assay and the other for standby use. Besides, collect plasma 0.5, 1, 2 and 4 hours after administration. Centrifugate with 3,000 g relative centrifugal force within half an hour after collection at about 4° C. for 15 minutes to separate supernatant and obtain plasma samples. Store the plasma samples in polypropylene tubes; rapidly freeze them on dry ice and keep them at −80° C. till LC/MS/MS assay. Add internal standard precipitated protein of acetonitrile solution and fully mix them to extract supernatant samples via centrifugation. Quantitatively analyze plasma concentration by LC-MS/MS assay and calculate pharmacokinetic parameters such as maximal concentration (Cmax), half-life (T1/2), maximal time (Tmax), drug concentration in different tissues after administration (AUC0-last), and drug concentration ratio between brain tissues and plasma (B/P).

[3] = tested on: LRRK2 phosphorylation in brain tissues; assay: In vivo pharmacological experiment: LRRK2 phosphorylation in brain tissues of mice (western blot); set-up: species or system C57BL/6J mice; details: oral, 10 mg/kg, once, 1 hour after administration
Experimental: Animals: C57BL/6J mice (male, 6-7 weeks old, weight: 20 g-22 g).
Grouping: Weigh all mice one day ahead of the experiment and divide them into 6 groups at random according to their weight, with 4 mice in each group. Exclude too heavy and too light mice, to ensure that average weight of all groups is the same.
The animals of each group are orally administered menstruum or the compound to be assayed in chronological order as shown in Table 4. One mouse is administered every 2 minutes. 1 hour after administration, all animals are successively euthanized with carbon dioxide in chronological order.
(1) After protein determination of brain tissue samples by BCA, apply 4% to 15% precast gel in an equal amount of protein samples.
(3) Perform protein electrophoresis at 200 V for 30 minutes. Then, use Midi PVDF Transfer Packs for membrane transfer for 7 minutes. Next, block them with TBS Blocker at room temperature for 1 hour.
(4) Prepare 5% milk with skimmed milk powder. Then, formulate antibodies P-LRRK2 (add 20 μl antibody to 5 mL 5% milk at 1:250), total-LRRK2 (add 10 μl antibody to 5 ml 5% skimmed milk at 1:500), p-Rabl0 (add 10 μl antibody to 5 mL 5% skimmed milk at 1:500) and p-actin (add 5 μl antibody to 5 mL 5% milk at 1:1000), and incubate the antibodies overnight. (5) Recycle the primary antibodies and rinse membranes with TBS for three times, 10 minutes each time. […]

[4] = brain tissues, read-out: AUC0-last Brain Tissues
[5] = brain tissues, read-out: Tmax Brain Tissues
[6] = plasma, read-out: AUC0-last Plasma
[7] = plasma, read-out: T1/2 Plasma (converted)
[8] = brain tissues, read-out: T1/2 Brain Tissues (converted)

SMILES	IC50 [1]	IC50 (LRRK2 (pSer935))	Kp [2]	AUC(0-t) [2, 4]	Tmax [2, 5]	Cmax ([2]; plasma)	AUC(0-t) [2, 6]	Tmax ([2]; plasma, read-out: Tmax Plasma)	Cmax Brain Tissues ([2]; brain tissues)	further results
COc1nc(N2CCC3(CCOC3)C2)ccc1Nc1ncc(Cl)c(Nc2ccccc2P(C)(C)=O)n1 (stereo not drawn) [Embodiment 1]	21 nM									
COc1nc(N2CCC3(CCCOC3)C2)ccc1Nc1ncc(Cl)c(Nc2ccccc2P(C)(C)=O)n1 (stereo not drawn) [Embodiment 2]	24.4 nM									
COc1nc(N2CC3(CCOCC3)C2)ccc1Nc1ncc(Cl)c(Nc2ccccc2P(C)(C)=O)n1 [Embodiment 3]	6.2 nM	4.3 nM	0.14	0.192 µM·h	30 min	1180 nM	1.39 µM·h	30 min	217 nM	half-life [2, 7]: 35.4 min
COc1nc(N2CCC3(CCCCO3)C2)ccc1Nc1ncc(Cl)c(Nc2ccccc2P(C)(C)=O)n1 (stereo not drawn) [Embodiment 4]	34.2 nM									
COc1nc(N2CCC3(CCCO3)C2)ccc1Nc1ncc(Cl)c(Nc2ccccc2P(C)(C)=O)n1 (stereo not drawn) [Embodiment 5]	8.2 nM	4 nM								
COc1nc(N2CC3(CCCOC3)C2)ccc1Nc1ncc(Cl)c(Nc2ccccc2P(C)(C)=O)n1 [Embodiment 6]	2.9 nM	3.3 nM								
COc1nc(N2CC3(CCCCO3)C2)ccc1Nc1ncc(Cl)c(Nc2ccccc2P(C)(C)=O)n1 [Embodiment 7]	8.5 nM	10.9 nM								
COc1nc(N2CCC3(CCOCC3)CC2)ccc1Nc1ncc(Cl)c(Nc2ccccc2P(C)(C)=O)n1 [Embodiment 8]	7.2 nM									
COc1nc(N2CC3(CCOC3)C2)ccc1Nc1ncc(Cl)c(Nc2ccccc2P(C)(C)=O)n1 [Embodiment 9]	7.8 nM	4.7 nM	0.2	0.489 µM·h	30 min	2600 nM	2.48 µM·h	30 min	604 nM	half-life [2, 8]: 21.6 min; half-life [2, 7]: 33.6 min
COc1nc(N2CCC3(CCOCC3)C2)ccc1Nc1ncc(Cl)c(Nc2ccccc2P(C)(C)=O)n1 [Embodiment 10]	21.6 nM									
COc1nc(N2CC3(CC(OC)C3)C2)ccc1Nc1ncc(Cl)c(Nc2ccccc2P(C)(C)=O)n1 [Embodiment 11]	5.3 nM	4.5 nM	0.41	0.597 µM·h	30 min	1560 nM	1.45 µM·h	30 min	698 nM	half-life [2, 8]: 22.2 min; half-life [2, 7]: 28.2 min
COc1nc(N2CC3(COC3)C2)ccc1Nc1ncc(Cl)c(Nc2ccccc2P(C)(C)=O)n1 [Embodiment 12]	1.6 nM	3.7 nM	0.14	0.476 µM·h	30 min	3630 nM	3.46 µM·h	30 min	576 nM	half-life [2, 8]: 23.4 min; half-life [2, 7]: 36 min
COc1nc(N2CC3(C2)CC(F)(F)C3)ccc1Nc1ncc(Cl)c(Nc2ccccc2P(C)(C)=O)n1 [Embodiment 13]	9.1 nM		0.52	1.16 µM·h	30 min	1200 nM	2.25 µM·h	30 min	726 nM	half-life [2, 8]: 43.2 min; half-life [2, 7]: 58.8 min
COc1nc(N2CC3(CCC3)C2)ccc1Nc1ncc(Cl)c(Nc2ccccc2P(C)(C)=O)n1 [Embodiment 14]	15.2 nM		0.96	4.2 µM·h	60 min	1650 nM	4.39 µM·h	60 min	2042 nM	
COc1nc(N2CC3(C2)CC3(F)F)ccc1Nc1ncc(Cl)c(Nc2ccccc2P(C)(C)=O)n1 [Embodiment 15]	7.4 nM		0.54	2.15 µM·h	30 min	2150 nM	4.02 µM·h	30 min	1436 nM	half-life [2, 8]: 37.8 min; half-life [2, 7]: 45 min
COc1ncc(N2CC3(CCOC3)C2)cc1Nc1ncc(Cl)c(Nc2ccccc2P(C)(C)=O)n1 [Embodiment 16]	10.6 nM									
COc1ncc(N2CCC3(CCOCC3)C2)cc1Nc1ncc(Cl)c(Nc2ccccc2P(C)(C)=O)n1 [Embodiment 17]	27.7 nM									
COc1ncc(N2CC3(COC3)C2)cc1Nc1ncc(Cl)c(Nc2ccccc2P(C)(C)=O)n1 [Embodiment 18]	4.6 nM	86.1 nM								
COc1ncc(N2CC3(CCOCC3)C2)cc1Nc1ncc(Cl)c(Nc2ccccc2P(C)(C)=O)n1 [Embodiment 19]	11.9 nM									
COc1c(Nc2ncc(Cl)c(Nc3ccccc3P(C)(C)=O)n2)ccnc1N1CC2(CCOC2)C1 [Embodiment 20]	1.6 nM	22 nM								
COc1c(Nc2ncc(Cl)c(Nc3ccccc3P(C)(C)=O)n2)ccnc1N1CC2(CCC2)C1 [Embodiment 21]	36.8 nM									
COc1c(Nc2ncc(Cl)c(Nc3ccccc3P(C)(C)=O)n2)ccnc1N1CC2(COC2)C1 [Embodiment 22]	2.6 nM	44 nM								
CCNc1nc(Nc2cc(F)c(C(=O)N3CCOCC3)cc2OC)ncc1C(F)(F)F [GNE-7915]										inhibition of LRRK2 phosphorylation in brain tissues [3]: inhibits FRRK2 phosphorylation
